Assays:
[1] = biological target: T1, PTH/PTHrP receptor (Homo sapiens, UniProt Q03431); assay: Competition radioligand binding, COS-7 cells transfected with human PTH/PTHrP receptor
T1 construct: expressed in transfected cells; host or cells: COS-7 cells, transient transfection, vector pcDNA-1
T1 sequence (Q03431 27-593): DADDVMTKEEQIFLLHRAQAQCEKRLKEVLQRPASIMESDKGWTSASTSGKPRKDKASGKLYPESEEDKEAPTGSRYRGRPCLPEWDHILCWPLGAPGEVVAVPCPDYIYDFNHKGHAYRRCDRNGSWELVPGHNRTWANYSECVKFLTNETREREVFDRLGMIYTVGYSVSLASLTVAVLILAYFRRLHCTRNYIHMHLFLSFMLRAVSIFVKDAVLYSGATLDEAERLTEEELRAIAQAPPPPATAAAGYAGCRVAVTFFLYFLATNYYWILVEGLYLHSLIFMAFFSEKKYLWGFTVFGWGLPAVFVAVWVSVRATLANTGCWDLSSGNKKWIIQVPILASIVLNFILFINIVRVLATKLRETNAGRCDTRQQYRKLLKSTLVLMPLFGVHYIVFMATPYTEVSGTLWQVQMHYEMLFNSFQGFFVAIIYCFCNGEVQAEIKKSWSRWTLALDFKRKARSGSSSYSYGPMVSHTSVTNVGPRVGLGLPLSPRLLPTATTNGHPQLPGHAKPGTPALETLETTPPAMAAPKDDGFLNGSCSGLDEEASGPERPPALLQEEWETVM
Method: (§1) The cDNAs encoding the human PTH/PTHrP receptor (Schipani, E. et al., Endocrinology 132:2157-2165 (1993)) and the human PTH-2 receptor (Usdin, T. et al., J. Biol. Chem. 270:15455-15458 (1995)) were carried on the expression vectors pcDNA-1 and pcDNAI/Amp (InVitrogen, San Diego, Calif.), respectively. COS-7 cells were cultured and transfected as described previously (Lee, C. et al., Mol. Endocrinol. 9:1269-1278 (1995)). Cells were transfected in 24-well plates using plasmid DNA (200 ng/well) purified by cesium chloride/ethidium bromide gradient centrifugation. Ligand binding and cAMP accumulation assays were performed three days after transfection, by which time the cell density reached 500,000±100,000 cells/well.
(§2) Binding reactions were performed as described previously. Id. Each well (final volume: […]) contained 26 fmole of ^125I-[Nle^8,21,Tyr^34]rPTH(1-34)NH2 (100,000 CPM) and various amounts (0.4-300 pmole) of an unlabeled competitor ligand, both diluted in binding buffer (50 mM Tris-HCl, pH 7.7, 100 mM NaCl, 5 mM KCl, 2 mM CaCl, 5% heat-inactivated horse serum, 0.5% heat-inactivated fetal bovine serum). Incubations were at room temperature for 2 hours, except for experiments involving Scatchard analysis, which were performed at 4° C. for 6 hours. At the end of the binding reaction, the cells were rinsed 3 times with 0.5 ml of binding buffer, lysed with 0.5 ml of 5M NaOH, and the entire lysate was counted. Nonspecific binding of tracer (NSB), determined in wells containing 1 μM of [NleTyr^8,21,Tyr^34]rPTH-(1-34)NH2, was ˜1% of total counts added. Maximum specific binding (B0) was calculated as the total radioactivity bound to cells in the absence of unlabeled PTH ligand, minus NSB. […] For Scatchard analyses, homologous competition binding studies were performed that used ^125I-[-NleTyr^8,21,Tyr^34]rPTH-(1-34)NH2 (26 fmole/well) and varying amounts (1.2-300 pmol) of the same unlabeled ligand. Estimates of the number of receptors/cell derived from these studies assumed a single class of binding sites and a transfection efficiency of 20% (Abou-Samra, A. B. et al., Proc. Natl. Acad. Sci (USA) 89:2732-2736 (1992)).

[2] = biological target: T2, PTH-2 receptor (Homo sapiens, UniProt P49190); assay: Competition radioligand binding, COS-7 cells transfected with human PTH-2 receptor
T2 construct: expressed in transfected cells; host or cells: COS-7 cells, transient transfection, vector pcDNAI/Amp
T2 sequence (P49190 25-550): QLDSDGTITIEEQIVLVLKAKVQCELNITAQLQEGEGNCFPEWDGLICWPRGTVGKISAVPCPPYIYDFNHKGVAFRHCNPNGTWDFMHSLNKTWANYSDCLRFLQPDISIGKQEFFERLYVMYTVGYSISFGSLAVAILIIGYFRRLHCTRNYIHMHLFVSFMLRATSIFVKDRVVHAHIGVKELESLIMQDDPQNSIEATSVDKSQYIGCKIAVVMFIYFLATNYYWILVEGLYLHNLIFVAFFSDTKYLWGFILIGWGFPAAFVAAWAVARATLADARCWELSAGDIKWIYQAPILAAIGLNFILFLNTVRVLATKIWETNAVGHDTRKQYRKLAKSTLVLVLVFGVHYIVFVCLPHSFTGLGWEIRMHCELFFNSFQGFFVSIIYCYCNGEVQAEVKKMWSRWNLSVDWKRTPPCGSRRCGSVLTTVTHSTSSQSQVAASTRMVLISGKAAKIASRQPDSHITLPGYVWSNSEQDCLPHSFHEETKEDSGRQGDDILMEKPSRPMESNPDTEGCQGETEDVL
Method: as §1, §2

[3] = biological target: T1, PTH/PTHrP receptor; assay: Ligand-induced intracellular cAMP accumulation, COS-7 cells expressing human PTH/PTHrP receptor; type: cell-based; details: for cAMP agonist activity in words, PTH/PTHrP receptor: COS-7 cells; for cAMP accumulation Maximum, PTH/PTHrP receptor: highest level of cAMP attained, basal 4.6 ± 0.2 not subtracted, 1h at room temperature
Method: as §1
(§3) Transfected COS-7 cells were rinsed with […] of binding buffer. 200 μl of IBMX buffer (DMEM containing 2 mM IBMX, 1 mg/ml bovine serum albumin, 35 mM Hepes-NaOH, pH 7.4) and […] of binding buffer or binding buffer containing various amounts of a PTH or PTHrP analog were then added. The plates were incubated for 60 minutes at room temperature. The buffer was then withdrawn and the cells lysed by placing the plates on powdered dry ice and adding 0.5 ml of 50 mM HCl. The acid lysate was diluted 1/30 in dH2O, and an aliquot (5-50 μl) analyzed for cAMP content by radioimmunoassay. […] The cells were then incubated for 30 minutes at room temperature, and the resulting intracellular cAMP was measured by RIA. Data were analyzed using the AssayZap software (Elsevier Science Publishers BV, Cambridge, United Kingdom).

[4] = biological target: T2, PTH-2 receptor; assay: Ligand-induced intracellular cAMP accumulation, COS-7 cells expressing human PTH-2 receptor; type: cell-based; details: for cAMP agonist activity in words, PTH-2 receptor: COS-7 cells; for cAMP accumulation Maximum, PTH-2 receptor: highest level of cAMP attained, basal 5.4 ± 0.3 not subtracted, 1h at room temperature
Method: as §1, §3

[5] = biological target: T2, PTH-2 receptor; assay: Antagonism of PTH-(1-34)-induced cAMP formation, COS-7 cells expressing PTH-2 receptor; type: cell-based; details: 30 minutes at room temperature, IBMX
Method: (§4) FIGS. 7A and 7B depicts the antagonism of PTH-(1-34)-induced cAMP formation in COS-7 cells expressing PTH/PTHrP or PTH-2 receptors. […] The corresponding basal cAMP levels in cells not treated with peptide were […] pmoles/well, respectively. Data are the mean (±s.e.m.) of two experiments, each performed in duplicate.
as §3

[6] = biological target: T1, PTH/PTHrP receptor; assay: Antagonism of PTH-(1-34)-induced cAMP formation, COS-7 cells expressing PTH/PTHrP receptor; type: cell-based; details: 30 minutes at room temperature, IBMX
Method: as §4, §3

[7] = competition with radioligand, COS-7 cells
[8] = agonist [Tyr34]hPTH-(1-34)NH2 1 nM

Substance | Binding potency, fold more potent than PTHrP-(1-36) ([1]; PTH/PTHrP receptor, inhibition of radioligand binding) [fold] | Binding in words, PTH/PTHrP receptor [1, 7] | Binding in words, PTH-2 receptor [2, 7] | cAMP agonist activity in words, PTH/PTHrP receptor [3] | cAMP accumulation Maximum, PTH/PTHrP receptor [3] [pmoles/well] | cAMP agonist activity in words, PTH-2 receptor [4] | cAMP accumulation Maximum, PTH-2 receptor [4] [pmoles/well] | cAMP level in cells treated with agonist alone, PTH-2 receptor ([5]; 1 nM) [pmoles/well] | cAMP level in cells treated with agonist alone, PTH/PTHrP receptor ([6]; 1 nM) [pmoles/well] | Binding affinity, fold stronger than PTHrP-(1-36) ([1]; PTH/PTHrP receptor) [fold] | Enhancement of binding potency compared to PTHrP-(1-36) ([2]; PTH-2 receptor) [fold] | Inhibition of PTH-(1-34)-induced cAMP activity in words, PTH-2 receptor [5, 8] | Effect on PTH-(1-34)-induced cAMP response in words, PTH/PTHrP receptor [6, 8]
[Tyr^34]hPTH-(1-34)NH2 [[Y34]hPTH-(1-34)NH2, reference compound] | 4.8 | fully inhibited binding of the radioligand | bound with high apparent affinity | full and potent agonists | 113 ± 13 | potent agonist | 81 ± 5 | 70±8 | 167±17 | – | – | – | –
[Trp^23,Tyr^36]hPTHrP-(1-36) [[W23, Y36]hPTHrP-(1-36)NH2] | – | – | – | potent agonist | 123 ± 14 | inactive | 12 ± 1 | – | – | 6 | 71 | at least as potent as [Leu^11,D-Trp^12]hPTHrP(7-34)NH2 | not an antagonist, but instead augmented the agonist response to PTH-(1-34)
